Assay results as given in patent publication US10376520B2, “Methods for the treatment of cardiovascular disorders” (Galapagos NV, priority 2015, dated 2019).

Tested on: RA patients
Assay: [HDL] determination, Study 2 (RA patients, monotherapy)
Assay type: in vivo, human
Text: Randomized, double-blind, placebo-controlled, multicenter, phase IIb dose finding study of Compound 1 (dosed as a [Compound 1:HCl:3H2O]) administered for 24 weeks as monotherapy to subjects with moderately to severely active rheumatoid arthritis who have an inadequate response to methotrexate alone
Double-blind, placebo-controlled, monotherapy study in subjects with moderately to severely active RA who have an inadequate response to methotrexate (MTX) (oral or parenteral).
280 subjects randomized to one of 3 doses of Compound 1 (dosed as a [Compound 1:HCl:3H2O]) or to placebo, given once daily (q.d.).
Twelve weeks of treatment with Compound 1 (dosed as a [Compound 1:HCl:3H2O]) at 50 mg, 100 mg, or 200 mg q.d.; or placebo. At Week 12, all subjects on placebo and the subjects on the 50 mg dose who have not achieved 20% improvement in swollen joint count (SJC66) and tender joint count (TJC68) will be assigned to 100 mg q.d. in a blinded fashion and will continue treatment until Week 24. Subjects in the other groups will maintain their randomized treatment until Week 24.
This assay relies on a homogeneous enzymatic colorimetric test. In the presence of magnesium ions, dextran sulfate selectively forms water-soluble complexes with LDL, VLDL and chylomicrons which are resistant to PEG-modified enzymes.
The cholesterol concentration of [HDL]-cholesterol is determined enzymatically by cholesterol esterase and cholesterol oxidase coupled with PEG to the amino groups (approx. 40%).
In the presence of peroxidase, the hydrogen peroxide generated reacts with 4-amino-antipyrine and Sodium N-(2-hydroxy-3-sulfopropyl)-3,5-dimethoxyaniline (HSDA) to form a purple-blue dye. The color intensity of this dye is directly proportional to the cholesterol concentration and is measured photometrically.
Human serum and plasma samples [HDL] determination was done on a Roche/Hitachi Cobas c 701/702 system which automatically calculate the analyte concentration of each sample. Samples containing precipitates are centrifuged before performing the assay.

[1] = placebo switching to 100 mg q.d. at week 12 (N = 72), week 16
[2] = placebo switching to 100 mg q.d. at week 12 (N = 72), week 20
[3] = placebo switching to 100 mg q.d. at week 12 (N = 72), week 24
[4] = placebo switching to 100 mg q.d. at week 12, week 16
[5] = placebo switching to 100 mg q.d. at week 12, week 20
[6] = placebo switching to 100 mg q.d. at week 12, week 24

O=C(Nc1nc2cccc(-c3ccc(CN4CCS(=O)(=O)CC4)cc3)n2n1)C1CC1 [Compound 1, cyclopropanecarboxylic acid {5-[4-(1,1-dioxo-thiomorpholin-4-ylmethyl)-phenyl]-[1,2,4]triazolo[1,5-a]pyridin-2yl}-amide]
[HDL] Mean CFB - 24 weeks results (100 mg q.d. (N = 70), week 8): 0.17 mmol/L
[HDL] Median CFB (100 mg q.d. (N = 70), week 8): 0.140 mmol/L
[HDL] Median CFB - 24 weeks results (100 mg q.d. (N = 70), week 8): 0.14 mmol/L
[HDL] Mean CFB (100 mg q.d. (N = 70), week 12): 0.190 mmol/L
[HDL] Mean CFB - 24 weeks results (100 mg q.d. (N = 70), week 12): 0.19 mmol/L
[HDL] Median CFB (100 mg q.d. (N = 70), week 12): 0.150 mmol/L
[HDL] Median CFB - 24 weeks results (100 mg q.d. (N = 70), week 12): 0.15 mmol/L
[HDL] Mean CFB - 24 weeks results (100 mg q.d. (N = 70), week 16): 0.23 mmol/L
[HDL] Median CFB - 24 weeks results (100 mg q.d. (N = 70), week 16): 0.20 mmol/L
[HDL] Mean CFB - 24 weeks results (100 mg q.d. (N = 70), week 20): 0.19 mmol/L
[HDL] Median CFB - 24 weeks results (100 mg q.d. (N = 70), week 20): 0.17 mmol/L
[HDL] Mean CFB - 24 weeks results (100 mg q.d. (N = 70), week 24): 0.18 mmol/L
[HDL] Median CFB - 24 weeks results (100 mg q.d. (N = 70), week 24): 0.18 mmol/L
[HDL] Mean percentage CFB - 12 weeks results (100 mg q.d., week 1): 7.49%
[HDL] Mean percentage CFB - 24 weeks results (100 mg q.d., week 1): 7.49%
[HDL] Median percentage CFB - 12 weeks results (100 mg q.d., week 1): 3.27%
[HDL] Mean percentage CFB - 12 weeks results (100 mg q.d., week 2): 11.30%
[HDL] Mean percentage CFB - 24 weeks results (100 mg q.d., week 2): 11.30%
[HDL] Median percentage CFB - 12 weeks results (100 mg q.d., week 2): 8.75%
[HDL] Mean percentage CFB - 12 weeks results (100 mg q.d., week 4): 15.65%
[HDL] Mean percentage CFB - 24 weeks results (100 mg q.d., week 4): 15.65%
[HDL] Median percentage CFB - 12 weeks results (100 mg q.d., week 4): 12.66%
[HDL] Mean percentage CFB - 12 weeks results (100 mg q.d., week 8): 13.77%
[HDL] Mean percentage CFB - 24 weeks results (100 mg q.d., week 8): 13.77%
[HDL] Median percentage CFB - 12 weeks results (100 mg q.d., week 8): 9.33%
[HDL] Mean percentage CFB - 12 weeks results (100 mg q.d., week 12): 15.23%
[HDL] Mean percentage CFB - 24 weeks results (100 mg q.d., week 12): 15.23%
[HDL] Median percentage CFB - 12 weeks results (100 mg q.d., week 12): 11.86%
[HDL] Median percentage CFB - 24 weeks results (100 mg q.d., week 16): 14.81%
[HDL] Mean percentage CFB - 24 weeks results (100 mg q.d., week 20): 14.51%
[HDL] Median percentage CFB - 24 weeks results (100 mg q.d., week 20): 13.29%
[HDL] Mean percentage CFB - 24 weeks results (100 mg q.d., week 24): 15.18%
[HDL] Median percentage CFB - 24 weeks results (100 mg q.d., week 24): 12.54%
[HDL] Mean CFB (200 mg q.d. (N = 69), week 1): 0.026 mmol/L
[HDL] Mean CFB - 24 weeks results (200 mg q.d. (N = 69), week 1): 0.03 mmol/L
[HDL] Median CFB (200 mg q.d. (N = 69), week 1): 0.030 mmol/L
[HDL] Median CFB - 24 weeks results (200 mg q.d. (N = 69), week 1): 0.03 mmol/L
[HDL] Mean CFB (200 mg q.d. (N = 69), week 2): 0.163 mmol/L
[HDL] Mean CFB - 24 weeks results (200 mg q.d. (N = 69), week 2): 0.16 mmol/L
[HDL] Median CFB (200 mg q.d. (N = 69), week 2): 0.150 mmol/L
[HDL] Median CFB - 24 weeks results (200 mg q.d. (N = 69), week 2): 0.15 mmol/L
[HDL] Mean CFB (200 mg q.d. (N = 69), week 4): 0.220 mmol/L
[HDL] Mean CFB - 24 weeks results (200 mg q.d. (N = 69), week 4): 0.22 mmol/L
[HDL] Median CFB (200 mg q.d. (N = 69), week 4): 0.210 mmol/L
[HDL] Median CFB - 24 weeks results (200 mg q.d. (N = 69), week 4): 0.21 mmol/L
[HDL] Mean CFB (200 mg q.d. (N = 69), week 8): 0.219 mmol/L
[HDL] Mean CFB - 24 weeks results (200 mg q.d. (N = 69), week 8): 0.22 mmol/L
[HDL] Median CFB (200 mg q.d. (N = 69), week 8): 0.200 mmol/L
[HDL] Median CFB - 24 weeks results (200 mg q.d. (N = 69), week 8): 0.20 mmol/L
[HDL] Mean CFB (200 mg q.d. (N = 69), week 12): 0.194 mmol/L
[HDL] Mean CFB - 24 weeks results (200 mg q.d. (N = 69), week 12): 0.19 mmol/L
[HDL] Median CFB (200 mg q.d. (N = 69), week 12): 0.150 mmol/L
[HDL] Median CFB - 24 weeks results (200 mg q.d. (N = 69), week 12): 0.15 mmol/L
[HDL] Mean CFB - 24 weeks results (200 mg q.d. (N = 69), week 16): 0.19 mmol/L
[HDL] Median CFB - 24 weeks results (200 mg q.d. (N = 69), week 16): 0.16 mmol/L
[HDL] Mean CFB - 24 weeks results (200 mg q.d. (N = 69), week 20): 0.21 mmol/L
[HDL] Median CFB - 24 weeks results (200 mg q.d. (N = 69), week 20): 0.16 mmol/L
[HDL] Mean CFB - 24 weeks results (200 mg q.d. (N = 69), week 24): 0.19 mmol/L
[HDL] Median CFB - 24 weeks results (200 mg q.d. (N = 69), week 24): 0.16 mmol/L
[HDL] Mean percentage CFB - 12 weeks results (200 mg q.d., week 1): 2.04%
[HDL] Mean percentage CFB - 24 weeks results (200 mg q.d., week 1): 2.04%
[HDL] Median percentage CFB - 12 weeks results (200 mg q.d., week 1): 2.50%
[HDL] Mean percentage CFB - 12 weeks results (200 mg q.d., week 2): 11.20%
[HDL] Mean percentage CFB - 24 weeks results (200 mg q.d., week 2): 11.20%
[HDL] Median percentage CFB - 12 weeks results (200 mg q.d., week 2): 9.92%
[HDL] Mean percentage CFB - 12 weeks results (200 mg q.d., week 4): 15.68%
[HDL] Mean percentage CFB - 24 weeks results (200 mg q.d., week 4): 15.68%
[HDL] Median percentage CFB - 12 weeks results (200 mg q.d., week 4): 14.18%
[HDL] Mean percentage CFB - 12 weeks results (200 mg q.d., week 8): 15.24%
[HDL] Mean percentage CFB - 24 weeks results (200 mg q.d., week 8): 15.24%
[HDL] Median percentage CFB - 12 weeks results (200 mg q.d., week 8): 16.35%
[HDL] Mean percentage CFB - 12 weeks results (200 mg q.d., week 12): 14.60%
[HDL] Mean percentage CFB - 24 weeks results (200 mg q.d., week 12): 14.60%
[HDL] Median percentage CFB - 12 weeks results (200 mg q.d., week 12): 12.00%
[HDL] Mean percentage CFB - 24 weeks results (200 mg q.d., week 16): 13.07%
[HDL] Mean percentage CFB - 24 weeks results (200 mg q.d., week 20): 15.18%
[HDL] Median percentage CFB - 24 weeks results (200 mg q.d., week 20): 11.54%
[HDL] Mean percentage CFB - 24 weeks results (200 mg q.d., week 24): 13.79%
[HDL] Median percentage CFB - 24 weeks results (200 mg q.d., week 24): 11.96%
[HDL] Mean CFB - 24 weeks results [1]: 0.19 mmol/L
[HDL] Median CFB - 24 weeks results [1]: 0.16 mmol/L
[HDL] Mean CFB - 24 weeks results [2]: 0.19 mmol/L
[HDL] Median CFB - 24 weeks results [2]: 0.18 mmol/L
[HDL] Mean CFB - 24 weeks results [3]: 0.16 mmol/L
[HDL] Median CFB - 24 weeks results [3]: 0.15 mmol/L
[HDL] Mean percentage CFB - 24 weeks results [4]: 16.36%
[HDL] Median percentage CFB - 24 weeks results [4]: 10.82%
[HDL] Mean percentage CFB - 24 weeks results [5]: 16.02%
[HDL] Median percentage CFB - 24 weeks results [5]: 13.11%
[HDL] Mean percentage CFB - 24 weeks results [6]: 13.47%
[HDL] Median percentage CFB - 24 weeks results [6]: 11.36%
